Assay [1] deals with TA[Q] (DNA, G4) TAGGGTTAGGGTTAGGGTTAGGG
As to the kind of experiment: fluorescence titration. To be noted: K+ 0.1 M; 25 mM Tris-HCl pH 7.5, 1 mM EDTA, 18 °C; 0.5 μM compound.

Assay [2] relates to rUA[Q] (RNA, G4) UAGGGUUAGGGUUAGGGUUAGGG
The assay is described as follows: fluorescence titration. To be noted: K+ 0.1 M; 25 mM Tris-HCl pH 7.5, 1 mM EDTA, 18 °C (general conditions).

We go through five compounds from paper PMC5515279 (2014).

In the case of `COc1ccc2cc3[n+](cc2c1OC)CCc1cc2c(cc1-3)OCO2`, the K11 result in assay [1] is on record as “(4.1 ± 0.4) × 10^5 M^-1”.

As for `COc1cc2c(cc1OC)-c1cc3ccc(OC)c(OC)c3c[n+]1CC2`, the K11 result in assay [1] is listed as “(4.1 ± 0.4) × 10^5 M^-1”.

As to `Cc1c2[n+](cc3c4c(ccc13)OCO4)CCc1cc3c(cc1-2)OCO3`, in assay [1], the K11 entry is on record as “(5.1 ± 0.4) × 10^5 M^-1”.

Regarding `c1c2c(cc3c1OCO3)-c1cc3ccc4c(c3c[n+]1CC2)OCO4`, the K11 result in assay [1] was “(1.4 ± 0.5) × 10^6 M^-1”.

For orientation: Kd means the concentration at which binding is half-saturated. In the case of `COc1cc2c(cc1OC)-c1cc3ccc4c(c3c[n+]1CC2)OCO4`, the Kd in assay [1] is given as 37 ± 8 nM. Besides, the binding constant entry in assay [2] is recorded as “(1.2 ± 0.2) × 10^6 M^-1”.
